Measured values as given in PMC9858449 (Journal of Enzyme Inhibition and Medicinal Chemistry, 2023).
Where two headings read alike, the source gives them in different places.

Key:
[1] = tested on: Topo II; details: read-out: Topo II IC50; cited from earlier work
[2] = tested on: HCT-116 cells; test: MTT cytotoxicity assay, HCT-116; details: Homo sapiens
[3] = tested on: HepG-2 cells; test: MTT cytotoxicity assay, HepG-2; assay type: cell-based; details: Homo sapiens
[4] = tested on: HeLa cells; test: MTT cytotoxicity assay, HeLa; details: Homo sapiens
[5] = tested on: MCF-7 cells; test: MTT cytotoxicity assay, MCF-7; details: Homo sapiens
[6] = tested on: HepG-2, HCT-116, MCF-7 and HeLa cells; test: MTT cytotoxicity assay, all four cancer cell lines together; assay type: cell-based; details: for Cytotoxic activity category, all four tested cancer cell lines: category in words by IC50, HepG-2, HCT-116, MCF-7, HeLa
[7] = tested on: HepG-2 cells; test: Flow cytometry cell cycle analysis; assay type: cell-based; details: HepG-2, PI staining
[8] = biological target: EGFR, VEGFR-2, and Topo II; test: In vitro enzyme inhibition assays, three enzymes together; assay type: biochemical; details: read-out: IC50 range on EGFR, VEGFR-2, and Topo II; range over the three enzymes
[9] = tested on: WI-38 cell line; test: In vitro cytotoxicity against normal WI-38 cell line; assay type: cell-based; details: Homo sapiens, WI-38, read-out: Normal cells IC50 WI-38
[10] = tested on: HepG-2 cells; test: Annexin V-FITC/PI apoptosis assay; assay type: cell-based; details: HepG-2, 24 h
[11] = biological target: EGFR (Homo sapiens, UniProt P00533); test: biochemical; assay type: biochemical
Chain of EGFR (P00533 25-1210): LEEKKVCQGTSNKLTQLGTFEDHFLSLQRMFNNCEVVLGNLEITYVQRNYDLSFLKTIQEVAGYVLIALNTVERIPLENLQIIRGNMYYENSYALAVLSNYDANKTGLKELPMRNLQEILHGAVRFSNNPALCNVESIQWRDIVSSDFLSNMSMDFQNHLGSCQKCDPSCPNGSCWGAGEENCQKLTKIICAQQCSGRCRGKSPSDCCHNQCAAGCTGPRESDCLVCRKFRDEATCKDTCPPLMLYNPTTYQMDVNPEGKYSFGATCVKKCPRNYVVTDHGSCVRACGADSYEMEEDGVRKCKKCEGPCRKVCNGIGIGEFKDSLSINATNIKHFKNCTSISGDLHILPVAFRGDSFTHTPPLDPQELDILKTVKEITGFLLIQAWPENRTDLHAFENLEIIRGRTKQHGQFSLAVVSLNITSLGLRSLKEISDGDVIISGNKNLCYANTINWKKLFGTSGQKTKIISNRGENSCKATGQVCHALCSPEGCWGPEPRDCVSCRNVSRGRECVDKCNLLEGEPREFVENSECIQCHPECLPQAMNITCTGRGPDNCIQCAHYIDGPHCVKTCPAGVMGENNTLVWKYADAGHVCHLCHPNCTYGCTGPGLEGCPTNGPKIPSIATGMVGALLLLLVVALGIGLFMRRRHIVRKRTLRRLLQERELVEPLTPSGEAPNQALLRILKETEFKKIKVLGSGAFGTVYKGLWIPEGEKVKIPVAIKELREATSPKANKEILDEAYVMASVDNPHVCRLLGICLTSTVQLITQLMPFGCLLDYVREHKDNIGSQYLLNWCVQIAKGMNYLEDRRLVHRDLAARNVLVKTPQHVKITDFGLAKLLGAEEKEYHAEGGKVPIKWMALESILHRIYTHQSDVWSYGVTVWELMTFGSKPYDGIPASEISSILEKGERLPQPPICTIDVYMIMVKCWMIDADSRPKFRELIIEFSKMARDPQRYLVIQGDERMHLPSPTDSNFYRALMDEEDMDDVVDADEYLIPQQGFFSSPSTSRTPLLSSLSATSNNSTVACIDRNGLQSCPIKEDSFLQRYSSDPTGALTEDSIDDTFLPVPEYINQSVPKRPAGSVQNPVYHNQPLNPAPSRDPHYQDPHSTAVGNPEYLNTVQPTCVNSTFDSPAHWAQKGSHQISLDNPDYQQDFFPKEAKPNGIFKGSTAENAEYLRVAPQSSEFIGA

[12] = biological target: VEGFR-2 (Homo sapiens, UniProt P35968); test: In vitro VEGFR-2 enzyme inhibition assay; assay type: biochemical
Chain of VEGFR-2 (P35968 20-1356): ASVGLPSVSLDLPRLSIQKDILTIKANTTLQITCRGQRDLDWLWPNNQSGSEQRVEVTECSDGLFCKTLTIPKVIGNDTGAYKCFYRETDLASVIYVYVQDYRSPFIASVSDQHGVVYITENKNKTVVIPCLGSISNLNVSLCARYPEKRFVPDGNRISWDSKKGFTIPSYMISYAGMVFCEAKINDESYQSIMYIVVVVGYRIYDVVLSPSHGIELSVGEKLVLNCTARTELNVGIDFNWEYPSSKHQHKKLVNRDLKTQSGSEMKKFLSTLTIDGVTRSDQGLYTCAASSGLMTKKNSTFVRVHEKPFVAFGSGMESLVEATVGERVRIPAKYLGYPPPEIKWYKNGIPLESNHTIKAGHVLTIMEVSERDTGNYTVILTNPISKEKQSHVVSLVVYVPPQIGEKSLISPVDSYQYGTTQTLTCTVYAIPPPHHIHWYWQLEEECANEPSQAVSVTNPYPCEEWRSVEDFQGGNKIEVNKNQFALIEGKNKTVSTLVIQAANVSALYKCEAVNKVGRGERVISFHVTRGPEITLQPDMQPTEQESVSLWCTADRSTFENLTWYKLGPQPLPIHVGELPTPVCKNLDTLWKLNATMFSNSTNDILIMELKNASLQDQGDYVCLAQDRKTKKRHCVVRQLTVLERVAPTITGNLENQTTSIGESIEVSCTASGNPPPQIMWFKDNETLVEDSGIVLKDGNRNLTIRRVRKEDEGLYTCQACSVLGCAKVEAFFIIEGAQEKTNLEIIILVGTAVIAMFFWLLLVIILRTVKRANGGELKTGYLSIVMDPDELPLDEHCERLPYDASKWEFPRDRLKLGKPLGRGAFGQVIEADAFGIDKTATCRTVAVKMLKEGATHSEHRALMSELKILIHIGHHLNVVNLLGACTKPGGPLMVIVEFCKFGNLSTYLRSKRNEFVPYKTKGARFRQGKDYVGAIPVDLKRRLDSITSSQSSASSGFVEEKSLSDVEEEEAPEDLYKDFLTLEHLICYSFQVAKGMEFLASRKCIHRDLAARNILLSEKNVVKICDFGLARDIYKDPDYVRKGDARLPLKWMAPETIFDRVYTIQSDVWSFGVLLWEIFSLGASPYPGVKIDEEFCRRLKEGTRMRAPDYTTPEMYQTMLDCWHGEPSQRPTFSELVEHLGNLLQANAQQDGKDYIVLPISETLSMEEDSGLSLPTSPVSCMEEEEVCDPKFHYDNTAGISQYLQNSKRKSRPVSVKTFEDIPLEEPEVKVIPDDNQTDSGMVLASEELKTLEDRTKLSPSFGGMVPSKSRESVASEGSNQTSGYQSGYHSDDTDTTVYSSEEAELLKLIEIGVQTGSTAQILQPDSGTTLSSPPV

[13] = biological target: Topo II; test: In vitro Topo II enzyme inhibition assay; assay type: biochemical; details: read-out: Topo II IC50; mean ± SD
[14] = biological target: Topoisomerase II (Topo II); details: read-out: Topo II IC50; cited from earlier work
[15] = tested on: Topo IIB; details: read-out: Topo IIB IC50; cited from earlier work
[16] = HCT-116, 48 h, read-out: In vitro Cytotoxicity IC50 HCT-116
[17] = HepG2, 48 h, read-out: In vitro Cytotoxicity IC50 HepG-2
[18] = 48 h, read-out: In vitro Cytotoxicity IC50 HeLa
[19] = MCF7, 48 h, read-out: In vitro Cytotoxicity IC50 MCF-7
[20] = HCT-116, read-out: Cytotoxic activity category, HCT-116
[21] = HepG2, read-out: Cytotoxic activity category, HepG-2
[22] = read-out: Cytotoxic activity category, HeLa
[23] = MCF7, read-out: Cytotoxic activity category, MCF-7
[24] = read-out: Cytotoxic activity category, all four tested cancer cell lines
[25] = read-out: IC50 range over the four cancer cell lines

Compound | IC50 [2, 16] [µM] | IC50 [3, 17] [µM] | IC50 [4, 18] [µM] | IC50 [5, 19] [µM] | further results
2-phenylthiomethylbenzimidazole [VI] |  |  |  |  | IC50 [1]: 17 µM
Cc1c(C(=O)NNC(=O)Nc2cccc3ccccc23)nnn1Cc1nc2ccccc2[nH]1 [Compound 5c, 2-{1-[(1h-Benzo[d]imidazol-2-yl)methyl]-5-methyl-1H-1,2,3-triazole-4-carbonyl}-N-(naphthalen-1-yl)hydrazinecarboxamide] | 59.2 ± 3.3 | 67.4 ± 3.5 | 27.6 ± 2 | 45.4 ± 2.9 | Cytotoxic activity category, all four tested cancer cell lines [6]: weak to moderate
Cc1c(C(=O)NNC(=S)Nc2ccccc2)nnn1Cc1nc2ccccc2[nH]1 [Compound 5d, 2-{1-[(1h-Benzo[d]imidazol-2-yl)methyl]-5-methyl-1H-1,2,3-triazole-4-carbonyl}-N-phenylhydrazinecarbothioamide] | 41.4 ± 2.8 | 57.2 ± 3.2 | 12.4 ± 0.9 | 30.8 ± 2.3 | IC50 [2, 20]: 21 to 50 µM; IC50 [3, 21]: 51 to 100 µM; IC50 [4, 22]: 11 to 20 µM; IC50 [5, 23]: 21 to 50 µM
Cc1ccc(NC(=S)NNC(=O)c2nnn(Cc3nc4ccccc4[nH]3)c2C)cc1 [Compound 5f, 2-{1-[(1h-Benzo[d]imidazol-2-yl)methyl]-5-methyl-1H-1,2,3-triazole-4-carbonyl}-N-(p-tolyl)hydrazinecarbothioamide] | 68.5 ± 3.7 | 72.7 ± 3.8 | 58.1 ± 3.1 | 64.1 ± 3.3 | 
COc1ccc(NC(=S)NNC(=O)c2nnn(Cc3nc4ccccc4[nH]3)c2C)cc1 [Compound 5g, 2-{1-[(1h-Benzo[d]imidazol-2-yl)methyl]-5-methyl-1H-1,2,3-triazole-4-carbonyl}-N-(4-methoxyphenyl)hydrazinecarbothioamide] | 18.7 ± 1.5 | 13.6 ± 1 | 8.7 ± 0.6 | 9.39 ± 0.8 | 
Cc1c(C(=O)NNC(=O)Nc2ccccc2)nnn1Cc1nc2ccccc2[nH]1 [Compound 5h, 2-{1-[(1h-Benzo[d]imidazol-2-yl)methyl]-5-methyl-1H-1,2,3-triazole-4-carbonyl}-N-phenylhydrazinecarboxamide] | 54.8 ± 3 | 42.1 ± 2.7 | 31.6 ± 2.3 | 38 ± 2.6 | Cytotoxic activity category, all four tested cancer cell lines [6]: weak to moderate
Cc1c(C(=O)N/N=C/c2ccc(Cl)cc2)nnn1Cc1nc2ccccc2[nH]1 [Compound 6a, (E)-1-[(1H-Benzo[d]imidazol-2-yl)methyl]-N′-(4-chlorobenzylidene)-5-methyl-1H-1,2,3-triazole-4-carbohydrazide] | 28.2 ± 2.5 | 47 ± 2.8 | 35.3 ± 2.5 | 39.5 ± 2.6 | IC50 [6, 24]: 21 to 50 µM; IC50 [6, 25]: 28.2 to 47 µM
Cc1c(C(=O)N/N=C/c2ccccc2)nnn1Cc1nc2ccccc2[nH]1 [Compound 6b, (E)-1-[(1H-Benzo[d]imidazol-2-yl)methyl]-N′-benzylidene-5-methyl-1H-1,2,3-triazole-4-carbohydrazide] | 75.1 ± 3.8 | 84.5 ± 4.1 | 61.2 ± 3.4 | 57.6 ± 3.3 | 
Cc1c(C(=O)N/N=C/c2cccc(Br)c2)nnn1Cc1nc2ccccc2[nH]1 [Compound 6c, (E)-1-[(1H-Benzo[d]imidazol-2-yl)methyl]-N′-(3-bromobenzylidene)-5-methyl-1H-1,2,3-triazole-4-carbohydrazide] | 63.6 ± 3.3 | 56.3 ± 3.2 | 48.8 ± 2.8 | 44.8 ± 2.9 | 
Cc1c(C(=O)N/N=C/c2cccc([N+](=O)[O-])c2)nnn1Cc1nc2ccccc2[nH]1 [Compound 6d, (E)-1-[(1H-Benzo[d]imidazol-2-yl)methyl]-5-methyl-N′-(3-nitrobenzylidene)-1H-1,2,3-triazole-4-carbohydrazide] | 36.5 ± 2.7 | 71.5 ± 3.6 | 52.2 ± 3.1 | 48.2 ± 3 | 
COc1ccc(/C=N/NC(=O)c2nnn(Cc3nc4ccccc4[nH]3)c2C)cc1OC [Compound 6e, (E)-1-[(1H-Benzo[d]imidazol-2-yl)methyl]-N′-(3,4-dimethoxybenzylidene)-5-methyl-1H-1,2,3-triazole-4-carbohydrazide] | 19.7 ± 1.7 | 33.6 ± 2.3 | 29.1 ± 2.3 | 23.7 ± 1.9 | IC50 [2, 20]: 11 to 20 µM; IC50 [3, 21]: 21 to 50 µM; IC50 [4, 22]: 21 to 50 µM; IC50 [5, 23]: 21 to 50 µM
Cc1c(C(=O)N/N=C/c2ccc(N(C)C)cc2)nnn1Cc1nc2ccccc2[nH]1 [Compound 6f, (E)-1-[(1H-Benzo[d]imidazol-2-yl)methyl]-N′-[4-(dimethylamino)benzylidene]-5-methyl-1H-1,2,3-triazole-4-carbohydrazide] | 11.7 ± 0.9 | 18.3 ± 1.5 | 22.8 ± 1.9 | 14.7 ± 1.1 | IC50 [2, 20]: 11 to 20 µM; IC50 [3, 21]: 11 to 20 µM; IC50 [4, 22]: 21 to 50 µM; IC50 [5, 23]: 11 to 20 µM
COc1cc(/C=N/NC(=O)c2nnn(Cc3nc4ccccc4[nH]3)c2C)ccc1O [Compound 6g, (E)-1-[(1H-Benzo[d]imidazol-2-yl)methyl]-N′-(4-hydroxy-3-methoxybenzylidene)-5-methyl-1H-1,2,3-triazole-4-carbohydrazide] | 3.34 ± 0.4 | 10.9 ± 0.8 | 9.84 ± 0.7 | 7.11 ± 0.5 | Cell cycle distribution G0-G1 [7]: 38.91%; Cell cycle distribution G2/M [7]: 33.81%; Cell cycle distribution Pre-G1 [7]: 36.28%; Cell cycle distribution S [7]: 27.28%; IC50 [8]: 0.131 to 8.37 µM; IC50 [9]: 43.3 ± 2.6 µM; Apoptosis Early (Q4) [10]: 11.02%; Apoptosis Late (Q2) [10]: 19.85%; Apoptosis Total [10]: 30.87%; Necrosis (Q1) [10]: 5.41%; Activity relative to Gefitinib against EGFR [11]: ~40%; IC50 [11]: 0.131 ± 0.005 µM; Activity relative to Sorafenib against VEGFR-2 [12]: 21%; IC50 [13]: 8.37 ± 0.49 µM; IC50 [6, 24]: 1 to 10 µM; IC50 [6, 25]: 3.34 to 10.9 µM
CN1CCN(c2ccc3nc(-c4c(N)c5c(F)cccc5[nH]c4=O)[nH]c3c2)CC1 [Dovitinib] |  |  |  |  | IC50 [14]: 13 µM
COc1cccc2c1C(=O)c1c(O)c3c(c(O)c1C2=O)C[C@@](O)(C(=O)CO)C[C@@H]3O[C@H]1C[C@H](N)[C@H](O)[C@H](C)O1 [Dox, Doxorubicin, reference compound] |  | 4.5 ± 0.2 |  |  | IC50 [15]: 0.83 µM; IC50 [6, 25]: 4.17 to 5.57 µM
